Experiments:
Assay in all cases: relative viability (nuclei count vs DMSO), 5 days (fraction); higher = more cells survive
[1] = compound: CCN1CCN(c2ccc(Nc3cc(N(C)C(=O)Nc4c(Cl)c(OC)cc(OC)c4Cl)ncn3)cc2)CC1 [BGJ398] + CCNC(=O)c1noc(-c2cc(C(C)C)c(O)cc2O)c1-c1ccc(CN2CCOCC2)cc1 [Luminespib] (partner 0.01 µM)
Outline: (§1)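 Nuclei were stained with Hoechst during a one-step fixation (final 0.05% Triton X-100, 1% formaldehyde, 1 ug/ml Hoechst) carried out 5 days after dosing, then counted on 4× images. The cells, lung cancer lines in 1536-well plates, had been dosed by pin tool the day after seeding with one drug alone or a fixed anchor-drug dose plus five library-drug doses (not always all listed) in √10 steps. Relative viability is the nuclei count in treated wells divided by that in vehicle wells, and each value is the median of duplicate plates.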

[2] = compound: CCN1CCN(c2ccc(Nc3cc(N(C)C(=O)Nc4c(Cl)c(OC)cc(OC)c4Cl)ncn3)cc2)CC1 [BGJ398] + COc1cc2c(Oc3ccc(NC(=O)C4(C(=O)Nc5ccc(F)cc5)CC4)cc3F)ccnc2cc1OCCCN1CCOCC1 [Foretinib] (partner 0.25 µM)
Outline: as §1

[3] = compound: CCN1CCN(c2ccc(Nc3cc(N(C)C(=O)Nc4c(Cl)c(OC)cc(OC)c4Cl)ncn3)cc2)CC1 [BGJ398] + CS(=O)(=O)N1CCN(Cc2cc3nc(-c4cccc5[nH]ncc45)nc(N4CCOCC4)c3s2)CC1 [Pictilisib] (partner 1 µM)
Outline: as §1

[4] = compound: CCN1CCN(c2ccc(Nc3cc(N(C)C(=O)Nc4c(Cl)c(OC)cc(OC)c4Cl)ncn3)cc2)CC1 [BGJ398] + C[C@]1(O)C[C@@H](c2nc(-c3ccc4ccc(-c5ccccc5)nc4c3)c3c(N)nccn32)C1 [Linsitinib] (partner 1 µM)
Outline: as §1

Question: For UMC-11, which relative viability ([1]; first compound 0.01 µM) is on record?
Answer: The relative viability was 1.02.

Question: What about the relative viability ([1]; first compound 0.03162 µM) of the same cell line?
Answer: Its relative viability is 1.08.

Question: What about the relative viability ([1]; first compound 0.1 µM) of the same cell line?
Answer: Its relative viability is 0.994.

Question: And the relative viability ([1]; first compound 0.3162 µM)?
Answer: The relative viability was 0.984.

Question: And the relative viability ([1]; first compound 1 µM)?
Answer: The relative viability was 1.01.

Question: And the relative viability ([2]; first compound 0.01 µM)?
Answer: The relative viability was 0.962.

Question: And the relative viability ([2]; first compound 0.03162 µM)?
Answer: Its relative viability is 1.

Question: What about the relative viability ([2]; first compound 0.1 µM) of the same cell line?
Answer: Its relative viability is 1.14.

Question: What about the relative viability ([2]; first compound 0.3162 µM) of the same cell line?
Answer: The relative viability was 0.977.

Question: And the relative viability ([2]; first compound 1 µM)?
Answer: The relative viability was 0.924.

Question: What about the relative viability ([3]; first compound 0.01 µM) of the same cell line?
Answer: Its relative viability is 0.839.

Question: What about the relative viability ([3]; first compound 0.03162 µM) of the same cell line?
Answer: Its relative viability is 0.686.

Question: What about the relative viability ([3]; first compound 0.1 µM) of the same cell line?
Answer: Its relative viability is 0.897.

Question: And the relative viability ([3]; first compound 0.3162 µM)?
Answer: The relative viability was 0.73.

Question: And the relative viability ([3]; first compound 1 µM)?
Answer: Its relative viability is 0.707.

Question: What about the relative viability ([4]; first compound 0.01 µM) of the same cell line?
Answer: Its relative viability is 1.01.

Question: And the relative viability ([4]; first compound 0.03162 µM)?
Answer: The relative viability was 0.982.

Question: And the relative viability ([4]; first compound 0.1 µM)?
Answer: Its relative viability is 1.04.

Question: What about the relative viability ([4]; first compound 0.3162 µM) of the same cell line?
Answer: Its relative viability is 1.03.

Question: And the relative viability ([4]; first compound 1 µM)?
Answer: The relative viability was 1.01.
